Reference: patent US20260200849A1, “CATIONIC LIPIDS AND PREPARATION METHOD THEREOF” (RiboX Therapeutics HK Limited, priority 2024, published 2026)
Where “and” joins values, the source holds several entries; their conditions need not be identical. Identical values can stand only once. Like-named read-outs stand apart in the source and are kept apart here.

Legend:
[1] = LNP size and polydispersity index (PDI) by dynamic light scattering (Zetasizer); format: physicochemical; conditions: for Size (nm): Formulation No. 001 (Ionizable lipid:DSPC:cholesterol:DMG-PEG2000 = 50:10:38.5:1.5, N/P 6), RNA No. 331
Experimental: (§1) The LNP size and polydispersity index (PDI), determined by dynamic light scattering (DLS), and zeta potential were measured by a Zetasizer machine (Malvern). RNA concentration and encapsulation efficacy (EE %) were analyzed by the Quant-IT Ribogreen kit by calculating the percentage encapsulation at 100%—(RNA-LNPs/RNA-LNPs with Triton X-100).

[2] = RNA encapsulation efficacy (EE %) by Quant-IT Ribogreen kit; format: physicochemical; conditions: LNP
Experimental: as §1

Hep G2 cells [3] = assay: In vitro expression: luciferase activity in Hep G2 cells transfected with RNA-LNPs; format: cell-based; conditions: Formulation No. 001, RNA No. 331 (firefly-luciferase), 100 ng/mL RNA-LNPs, 72 hours post transfection
Experimental: 2E5 Hep G2 cells were transfected with 100 ng/mL of RNA-LNPs encoding for firefly-luciferase. At 72 hours post transfection, the cells were washed and lysed. The luciferase expression (2-well repeat) was determined in the cell lysates with the luciferase assay reagent kit (Promega), according to the kit protocol, luciferase activity was measured by a luminometer.

Hep G2 cells [4] = assay: In vitro toxicity: Hep G2 cell viability by CellTiter-Glo; format: cell-based; conditions: Formulation No. 001, RNA No. 331, 1 μg/mL RNA-LNPs, 72 hours post transfection, cell only = 100%
Experimental: 2E5 Hep G2 cells were transfected with 1 μg/mL RNA-LNPs. At 72 hours post transfection, cell viability (2-well repeat) was determined with the CellTiter-Glo® reagent kit, according to the kit protocol, measured by a luminometer. Cell only as control (100%).
The cell viability was calculated according to the following formula: […]

Balb/c mice = assay: In vivo expression by IV, 0.05 mg/kg luciferase RNA-LNPs, IVIS luminescence; conditions: Formulation No. 001, RNA No. 331; female Balb/c mice, 0.05 mg*kg−1 intravenous, 24-hours post injection
Outline: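 Female Balb/c mice (7-8 weeks, N=3) received 0.05 mg*kg−1 firefly-luciferase RNA-LNPs IV. Luciferin (15 mg/ml) was given IP at 24 and 72 h post-dose for IVIS whole-body luminescence. A second run imaged whole body, liver and spleen at 24 h only.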

MCP-1 = assay: In vivo tolerability by IV: serum MCP-1 by Luminex; design: species or system C57BL/6J mice; conditions: Formulation No. 001, RNA No. 331, male C57BL/6J mice, 1.0 mg*kg/1 intravenous; for MCP-1 at 2 h: 2 hours post injection; for MCP-1 at 24 h: 24 hours post injection
Outline: (§2)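 Male C57BL/6J mice aged 6-8 weeks (N=3) received 1.0 mg*kg−1 firefly-luciferase RNA-LNPs intravenously, with PBS as negative control. Serum taken at 2 and 24 h post-injection was assayed for MCP-1 and IL-6 by Luminex.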

IL-6 = assay: In vivo tolerability by IV: serum IL-6 by Luminex; design: species or system C57BL/6J mice; conditions: Formulation No. 001, RNA No. 331, male C57BL/6J mice, 1.0 mg*kg/1 intravenous; for IL-6 at 2 h: 2 hours post injection; for IL-6 at 24 h: 24 hours post injection
Outline: as §2

C57BL/6J mice = assay: In vivo expression by IV, 1.0 mg/kg luciferase RNA-LNPs, whole-body and organ IVIS luminescence; conditions: Formulation No. 001, RNA No. 331; male C57BL/6J mice, 1.0 mg*kg−1 intravenous, 24-hours post injection
Outline: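 Male C57BL/6J mice, 6-8 weeks old (N=3), received 1.0 mg*kg−1 firefly-luciferase RNA-LNPs IV. At 24 h post-dose, luciferin (15 mg/ml) was given IP, and whole-body, liver, spleen, kidney, small and large intestine luminescence was imaged by IVIS.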

[5] = In vivo lipid metabolism by IV: ionizable lipid concentration in plasma and liver by LC-MS/MS; design: species or system Sprague-Dawley (SD) rats; conditions: IV 0.15 mg/kg RNA-LNPs (hEPO), male SD rats, individual animals N=3; for concentration at 6 h: male, Sprague-Dawley, rat, iv, 0.15 mg/kg
Experimental: In Vivo Lipid Metabolism by IV 7-8 week old, male Sprague-Dawley (SD) rats (N=3) were injected with 0.15 mg*kg−1 of RNA-LNPs encoding for hEPO by intravenous injection. At 1-/6-/96-/168-hours post injection, about 100 μL blood will be harvested and immediately added to the EDTAK2 containing tube. Place on wet ice and then centrifuged at 3000 g×5 min to obtain plasma. 30 μL plasma will be aliquoted to the 1.5 mL tubes. At terminal 6-/168-hours post injection, the rats will be euthanized with CO2, hemorrhaged immediately with cardiac puncture, respectively. The livers were harvested, weighed and washed with saline, then put into 50 ml centrifuge tube placed in liquid nitrogen, then transferred into wet ice, and finally stored at −80° C. immediately. Both plasma and liver samples were used for ionizable lipid concentration quantification by LC-MS/MS. The lower limit of quantitation (LLOQ) is 1 ng/mL in plasma or 11 ng/g in liver. BQL—Below the lower limit of quantitation (LLOQ).

[6] = Formulation No. 001, RNA No. 019 (hEPO)
[7] = Formulation No. 001, RNA No. 331
[8] = liver, 6 h post injection, read-out: Liver (ng/g), ionizable lipid concentration

Row | SMILES | Size (nm) [1] [nm] | PDI [1, 6] | Size [1, 6] [nm] | PDI [1, 7] | EE (%) [2, 6] [%] | EE (%) [2, 7] [%] | In vitro Expression (Mean) (Hep G2 cells [3]) | In vitro cell viability (%) (Mean) (Hep G2 cells [4]) | Liver (p/s) (Mean) (Balb/c mice) | Spleen (p/s) (Mean) (Balb/c mice) | Whole body (p/s) (Mean) (Balb/c mice) | MCP-1 at 2 h (MCP-1) [pg/mL] | MCP-1 at 24 h (MCP-1) [pg/mL] | IL-6 at 2 h (IL-6) [pg/mL] | IL-6 at 24 h (IL-6) [pg/mL] | Kidney (p/s) (C57BL/6J mice) | Large intestine (p/s) (C57BL/6J mice) | Liver (p/s) (C57BL/6J mice) | Small intestine (p/s) (C57BL/6J mice) | Spleen (p/s) (C57BL/6J mice) | also measured
1 | CCCCC/C=C\C/C=C\CCCCCCCCOC(=O)NC(COC(=O)NCCN1CCCCCC1)C(=O)OCCCCCC(=O)OCC(CCCCCCCC)CCCCCCCCCC (centres unmarked) [Lipid 911] | 64.33 | 0.05 | 58.16 | 0.03 | 94.15 | 98.24 | 5.01E+05 | 81.84 | 5.42E+08 | 1.27E+08 | 1.17E+09 | 2000 | 254 | 28.5 | 4.43 | 3.75E+07 | 8.42E+07 | 7.97E+09 | 6.47E+08 | 8.51E+08 | Whole body (p/s) (C57BL/6J mice): 7.27E+09 p/s; Plasma (ng/mL), ionizable lipid concentration ([5]; 1 h post injection): 7622 ng/mL and 5572 ng/mL and 3130 ng/mL; Liver (ng/g), ionizable lipid concentration ([5]; 6 h post injection): 29536 ng/g and 35435 ng/g; Plasma (ng/mL), ionizable lipid concentration ([5]; 6 h post injection): 298 ng/mL and 2.59 ng/mL and 3.41 ng/mL; Liver (ng/g), ionizable lipid concentration ([5]; 168 h post injection): 890 ng/g and 1331 ng/g and 618 ng/g; concentration at 6 h [5, 8]: 29400 ng/g
2 | CCCCCCCCCCCOC(=O)CCCCCOC(=O)C(COC(=O)NCCN1CCCCCC1)NC(=O)OCCCCCCCCOC(=O)C(CCCCCC)CCCCCCCC (centres unmarked) [Lipid 924] | 78.20 | 0.16 | 87.04 | 0.05 | 90.41 | 90.24 | 6.15E+05 | 89.34 | 9.02E+08 | 2.37E+08 | 3.08E+09 | 1390 | 207 | 47.1 | 5.9 | 3.17E+07 | 3.25E+08 | 5.23E+09 | 7.18E+08 | 1.13E+09 | Whole body (p/s) (C57BL/6J mice): 4.40E+09 p/s; Plasma (ng/mL), ionizable lipid concentration ([5]; 1 h post injection): 5572 ng/mL and 3130 ng/mL and 7622 ng/mL; Liver (ng/g), ionizable lipid concentration ([5]; 6 h post injection): 1864 ng/g and 1834 ng/g; Plasma (ng/mL), ionizable lipid concentration ([5]; 6 h post injection): 2.59 ng/mL and 3.41 ng/mL and 298 ng/mL; concentration at 6 h [5, 8]: 1410 ng/g
3 | CCCCCCCCCC(=O)OCCCCCCCOC(=O)C(COC(=O)NCCN1CCCCCC1)NC(=O)OCCCCCCCCOC(=O)C(CCCCCC)CCCCCCCC (centres unmarked) [Lipid 934] | 70.72 | 0.08 | 70.30 | 0.03 | 93.44 | 95.74 | 5.28E+05 | 94.29 | 6.73E+08 | 2.04E+08 | 1.87E+09 | 1360 | 229 | 40.7 | 7.83 | 4.10E+07 | 1.17E+08 | 1.82E+09 | 6.60E+08 | 1.17E+09 | Whole body (p/s) (C57BL/6J mice): 2.46E+09 p/s; Plasma (ng/mL), ionizable lipid concentration ([5]; 1 h post injection): 3316 ng/mL and 5944 ng/mL and 9980 ng/mL; Plasma (ng/mL), ionizable lipid concentration ([5]; 6 h post injection): 691 ng/mL and 8.59 ng/mL; concentration at 6 h [5, 8]: 14 ng/g
4 | CCCCC/C=C\CCOC(=O)CCCCCOC(=O)C(COC(=O)NCCN1CCCCCC1)NC(=O)OCCCCCCCCOC(=O)C(CCCCCC)CCCCCCCC (centres unmarked) [Lipid 955] | 81.86 | 0.14 | 90.32 | 0.03 | 93.99 | 91.27 | 2.53E+05 | 95.28 | 7.00E+08 | 9.11E+07 | 2.15E+09 | 3350 | 580 | 1140 | 7.13 | 4.80E+07 | 3.44E+08 | 1.98E+09 | 6.59E+08 | 2.12E+09 | Whole body (p/s) (C57BL/6J mice): 4.06E+09 p/s; Plasma (ng/mL), ionizable lipid concentration ([5]; 1 h post injection): 6059 ng/mL and 23590 ng/mL and 15983 ng/mL; Liver (ng/g), ionizable lipid concentration ([5]; 6 h post injection): 703 ng/g and 396 ng/g; Plasma (ng/mL), ionizable lipid concentration ([5]; 6 h post injection): 11.9 ng/mL and 22 ng/mL; concentration at 6 h [5, 8]: 668 ng/g; concentration at 6 h ([5]; plasma, 6 h post injection, read-out: Plasma (ng/mL), ionizable lipid concentration): 17 ng/mL
